{"source": "patent US11998616B2", "about": "“Nanoparticles for crossing the blood brain barrier and methods of treatment using the same” (California Institute of Technology, priority 2018, dated 2024)", "key": {"[1]": {"test": "Gross toxicity observation during efficacy studies", "format": "in vivo, Rag2−/−; Il2rg−/− mice", "details": "tail vein injection once per week for 4 weeks", "method": "Treatments. Treatment began when brain metastatic tumors reached ˜2 mm^3, as measured by MRI. Mice in each model were randomized into […] of six mice per group. CPT at a dose of 4 mg/kg (in 20% DMSO, 20% PEG 400, 30% ethanol, and 30% 10 mM pH 3.5 phosphoric acid), Herceptin at 24 mg/kg (in PBS, pH 7.4), TfR-targeted CPT nanoparticles at 4 mg/kg (CPT basis, in PBS, pH 7.4), TfR-targeted Herceptin nanoparticles at 24 mg/kg (Herceptin basis, in PBS, pH 7.4), and TfR-targeted combination CPT/Herceptin nanoparticles at 4 and 24 mg/kg (CPT and Herceptin bases, respectively, in PBS, pH 7.4) were freshly prepared. The different formulations were systemically administered by lateral tail vein injection once per week for 4 weeks. Injections were standardized to 150 μL per 20 g body weight. The control treatment was 0.9% (w/v) saline."}, "[2]": {"system": "human BT474-Gluc breast cancer metastatic brain tumors", "test": "Antitumor efficacy, brain tumors established by IC injection", "format": "in vivo, Rag2−/−; Il2rg−/− mice", "method": "(§1) For the IC model, 50,000 BT474-Gluc cells in 2 μL RPMI were intracranially injected into the right cerebral hemisphere of female Rag2−/−; Il2rg−/− mice (Jackson Laboratory) using a stereotaxic apparatus at a rate of 0.1 μL/min. The coordinates for injection were 2 mm posterior, 1.5 mm lateral to bregma, and 2.5 mm depth from bregma. For the IV model, 2 M cells were suspended in 150 μL RPMI and slowly injected into the lateral tail vein of restrained female Rag2−/−; Il2rg−/− mice.\n(§2) Tumor Size Monitoring. For ICD and IV models, formation of BT474-Gluc brain metastatic tumors was monitored by MRI every third week until macroscopic tumors were visible (˜0.2 mm^3 in volume). Tumor growth was then monitored weekly by MRI, as for the IC model. Mice were anaesthetized with 1.5-2% (v/v) isoflurane in O2 at a flow rate of 1-1.5 mL/min. T2-weighted 3D RARE images were acquired to assess the tumor volume. […] Tumor volume was determined manually from the T2 hyperintense tumor regions of the brain using Fiji software. For the IC model, tumor size was also monitored by measuring the activity of secreted Gluc in the blood. […] Blood was transferred to an opaque 96-well plate (Nunc), and Gluc activity measured using the Pierce Gaussia Luciferase Flash Assay Kit, according to the manufacturer's protocol. Photon counts were acquired for 5 s following addition of coelenterazine using a Safire 2 multi-mode plate reader (Tecan). […]\n(§3) Treatments. Treatment began when brain metastatic tumors reached ˜2 mm^3, as measured by MRI. […]\nBrain Tumors Show Significant Delay in Growth with TfR-Targeted Nanoparticles, but their Response Differs when Established by Different Methods. […] After IC, ICD or IV injection of BT474-Gluc cells, formation of brain metastatic tumors was monitored by MRI. […] Brain tumor volume was measured weekly by MRI. Blood Gluc activity was measured in addition only for the IC model, due to substantial extracranial tumor burden in the ICD and IV models."}, "[3]": {"test": "Brain uptake of therapeutics in tumor and healthy brain tissue by HPLC", "format": "in vivo, Rag2−/−; Il2rg−/− mice", "details": "IC-established brain tumors; 24 h after 4 mg/kg dose (CPT basis)", "method": "Brain Uptake of Therapeutics Differs in Tumor, but not Healthy Tissue between Models. To ascertain whether differences in brain penetration of the therapeutics might explain the discordance in efficacy between brain metastasis models, we systemically administered an additional dose of each treatment at the end of the efficacy study. After 24 h, mice were anesthetized and perfused with PBS to clear any remaining nanoparticles or free drug from the bloodstream. Drug uptake into tumor and healthy brain tissue was quantified by HPLC as previously described."}, "[4]": {"system": "human BT474-Gluc breast cancer metastatic brain tumors", "test": "Antitumor efficacy, brain tumors established by ICD injection", "format": "in vivo, Rag2−/−; Il2rg−/− mice", "method": "Intracardiac (ICD) Brain Metastasis Model. All animals were treated according to the NIH guidelines for animal care and use as approved by the Caltech Institutional Animal Care and Use Committee. BT474-Gluc cells, transduced with an expression cassette encoding Gluc and CFP separated by an internal ribosomal entry site using a lentiviral vector, were obtained from Dr. Jain at Harvard University. BT474-Gluc cells were maintained in RPMI 1640 supplemented with 10% (v/v) FBS in a humidified oven at 37° C. with 5% CO2. 100,000 BT474-Gluc cells were suspended in 100 μL of RPMI and slowly injected into the left ventricle of female Rag2−/−; Il2rg−/− mice. Injections were performed blind, midway between the sternal notch and top of xyphoid process, and 13% anatomical left of sternum. Successful insertion into the left cardiac ventricle was confirmed by a bright red pulse of blood in the syringe.\nas §2, with “mL/min.” for “mL/min. T2-weighted 3D RARE images were acquired to assess the tumor volume.”\nas §3\nBrain Tumors Show Significant Delay in Growth with TfR-Targeted Nanoparticles, but their Response Differs when Established by Different Methods. […] After IC, ICD or IV injection of BT474-Gluc cells, formation of brain metastatic tumors was monitored by MRI. […]"}, "[5]": {"system": "human BT474-Gluc breast cancer metastatic brain tumors", "test": "Antitumor efficacy, brain tumors established by IV injection", "format": "in vivo, Rag2−/−; Il2rg−/− mice", "method": "as §1\nTumor Size Monitoring. For ICD and IV models, formation of BT474-Gluc brain metastatic tumors was monitored by MRI every third week until macroscopic tumors were visible (˜0.2 mm^3 in volume). Tumor growth was then monitored weekly by MRI, as for the IC model. Mice were anaesthetized with 1.5-2% (v/v) isoflurane in O2 at a flow rate of 1-1.5 mL/min. T2-weighted 3D RARE images were acquired to assess the tumor volume. The image acquisition parameters were as follows: echo time: 6.1 ms; repetition time: 250 ms; rapid acquisition relaxation enhanced (RARE) factor: 4; number of averages: 4; field of view: 2.0 cm×1.2 cm×0.8 cm; matrix: 200×120×80 ([…] resolution). Tumor volume was determined manually from the T2 hyperintense tumor regions of the brain using Fiji software. For the IC model, tumor size was also monitored by measuring the activity of secreted Gluc in the blood. […] Blood was transferred to an opaque 96-well plate (Nunc), and Gluc activity measured using the Pierce Gaussia Luciferase Flash Assay Kit, according to the manufacturer's protocol. Photon counts were acquired for 5 s following addition of coelenterazine using a Safire 2 multi-mode plate reader (Tecan). […]\nas §3\nDevelopment of Mouse Model that Replicates the Metastasis Process in HER2-Positive Breast Cancer Brain Metastasis Patients. […] HER2-positive BT474-Gluc cells were intravenously (IV) injected into Rag2^−/−; Il2rg^−/− mice, and formation of brain metastases was monitored by MRI. […]"}, "BT474-Gluc cells": {"system": "BT474-Gluc cells", "test": "In vitro sensitivity to CPT of BT474-Gluc cells isolated from brain tumors and parental cells", "format": "cell-based, human", "details": "cells from IC-, ICD-, IV-established tumors and parental cells; dose-response curves"}, "[6]": {"details": "4 mg/kg (CPT basis) weekly x4, end of the study"}}, "note": "“Also recorded” adds a separate entry of the source."}
{"compound": "CC[C@@]1(O)C(=O)OCc2c1cc1n(c2=O)Cc2cc3ccccc3nc2-1", "note": "[CPT, camptothecin]", "values": [{"measurement": "gross signs of toxicity", "setting": "[1]", "value": "animals did have reactions to dosing"}, {"measurement": "Mean tumor volume", "setting": "[2]; 4 mg/kg (CPT basis) tail vein once per week for 4 weeks, end of the study", "value": 39, "unit": "mm^3"}, {"measurement": "Median tumor volume", "setting": "[2]; [6]", "value": 39, "unit": "mm^3"}, {"measurement": "decrease in mean tumor volume compared to saline", "setting": "[2]; end of the study", "value": 2.6, "unit": "fold"}, {"measurement": "accumulation in tumor tissue", "setting": "[3]", "value": "significant accumulation"}, {"measurement": "Mean tumor volume", "setting": "[4]; [6]", "value": 69, "unit": "mm^3"}, {"measurement": "Median tumor volume", "setting": "[4]; [6]", "value": 71, "unit": "mm^3"}, {"measurement": "tumor growth response", "setting": "[4]; compared to saline", "value": "modest response"}, {"measurement": "Mean tumor volume", "setting": "[5]; [6]", "value": 86, "unit": "mm^3"}, {"measurement": "Median tumor volume", "setting": "[5]; [6]", "value": 86, "unit": "mm^3"}, {"measurement": "tumor growth inhibition", "setting": "[5]; compared to saline", "value": "no tumor growth inhibition"}, {"measurement": "sensitivity of cells to CPT in vitro", "setting": "BT474-Gluc cells", "value": "comparable sensitivities to CPT; also recorded: similarly sensitive to CPT"}]}
